Data on 4 molecules can be found in paper PMC8670397 (Bioorganic & medicinal chemistry, 2020).

One data set addresses 5-HT1A receptor (Homo sapiens, UniProt P08908).
The next data set addresses 5-HT7 receptor (Homo sapiens, UniProt P34969).
In a further data set the target is D1 receptor (Homo sapiens, UniProt P21728). The data set is described as follows: biochemical.
The conditions of data set [1]: cited from earlier work.
A further data set deals with D2R. Conditions: similar to aripiprazole; cited from earlier work.

Some results are limits rather than exact numbers.

5-HT7 receptor, sequence (P34969 whole entry): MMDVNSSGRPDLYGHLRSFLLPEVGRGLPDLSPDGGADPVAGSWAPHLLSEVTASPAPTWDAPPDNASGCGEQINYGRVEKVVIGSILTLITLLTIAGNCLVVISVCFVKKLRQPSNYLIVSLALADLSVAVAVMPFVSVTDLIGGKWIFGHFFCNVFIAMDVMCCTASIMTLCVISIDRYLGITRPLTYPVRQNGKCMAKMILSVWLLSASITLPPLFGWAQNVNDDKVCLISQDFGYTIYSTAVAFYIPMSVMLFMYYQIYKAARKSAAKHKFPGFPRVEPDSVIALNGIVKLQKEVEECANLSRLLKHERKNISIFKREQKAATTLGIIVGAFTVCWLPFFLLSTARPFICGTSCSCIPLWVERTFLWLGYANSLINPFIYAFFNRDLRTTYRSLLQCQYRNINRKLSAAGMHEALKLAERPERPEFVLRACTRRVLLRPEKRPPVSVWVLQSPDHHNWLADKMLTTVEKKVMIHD
D1 receptor, sequence (P21728 whole entry): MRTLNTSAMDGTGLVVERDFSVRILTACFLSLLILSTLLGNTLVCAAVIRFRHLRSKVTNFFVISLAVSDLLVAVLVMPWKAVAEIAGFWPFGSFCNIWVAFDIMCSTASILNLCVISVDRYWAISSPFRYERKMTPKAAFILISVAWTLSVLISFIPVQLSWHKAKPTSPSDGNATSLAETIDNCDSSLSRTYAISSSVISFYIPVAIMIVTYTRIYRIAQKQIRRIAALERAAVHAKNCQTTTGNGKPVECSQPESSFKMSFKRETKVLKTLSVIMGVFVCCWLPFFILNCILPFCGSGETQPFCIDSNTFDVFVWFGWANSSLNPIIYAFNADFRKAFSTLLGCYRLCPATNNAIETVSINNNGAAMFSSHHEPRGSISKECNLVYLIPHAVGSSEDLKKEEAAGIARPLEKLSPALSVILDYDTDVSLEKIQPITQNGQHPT
5-HT1A receptor, sequence (P08908 whole entry): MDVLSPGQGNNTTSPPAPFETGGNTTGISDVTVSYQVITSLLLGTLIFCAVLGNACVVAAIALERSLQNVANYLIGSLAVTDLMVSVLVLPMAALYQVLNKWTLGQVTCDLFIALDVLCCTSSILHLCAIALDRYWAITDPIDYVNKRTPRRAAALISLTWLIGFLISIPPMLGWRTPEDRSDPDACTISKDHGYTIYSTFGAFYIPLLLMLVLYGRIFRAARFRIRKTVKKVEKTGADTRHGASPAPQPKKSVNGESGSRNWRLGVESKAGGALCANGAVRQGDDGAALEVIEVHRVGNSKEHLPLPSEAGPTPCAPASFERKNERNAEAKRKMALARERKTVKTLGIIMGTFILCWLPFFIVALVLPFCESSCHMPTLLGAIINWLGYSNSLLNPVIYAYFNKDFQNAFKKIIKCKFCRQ

On to `O=C1c2ccc(F)cc2CC1CCN1CCCN(c2ccccn2)CC1` (stereo not drawn) [Compound 14], for which, on 5-HT1A receptor, the “mean pKi ± SEM 5-HT1A” value is reported as 6.1 ± 0.1.

As for `Fc1ccc(CCCCN2CCN(c3cccnc3)CC2)cc1.O=C(O)C(=O)O` [Compound 21, 1-(4-(4-fluorophenyl)butyl)-4-(pyridin-3-yl)piperazine oxalate], the “mean pKi ± SEM 5-HT7” value at 5-HT7 receptor was 6.63 ± 0.09. At D1 receptor, the Ki was greater than 2000 nM. In the case of `Cc1ccc(N2CCN(CCCCc3ccc(F)cc3)CC2)nc1` [Compound 9, 1-(4-(4-fluorophenyl)butyl)-4-(5-methylpyridin-2-yl)piperazine], the “mean pKi ± SEM 5-HT7” value on 5-HT7 receptor is listed as 7.2 ± 0.1. As for `Fc1ccc(CCCCN2CCN(c3ccccn3)CC2)cc1` [Compound 5, 1-(4-(4-fluorophenyl)butyl)-4-(pyridin-2-yl)piperazine], the “blood brain barrier (BBB) permeability” value in data set [1] is “high”. Besides, in the data set on D2R, the “signaling at the D2R” value is “activates both G-protein and β-arrestin signaling”.
